Source: US20090253644A1, “Radiosensitizer” (TOYO SUISAN KAISHA, LTD., priority 2004, published 2009)

Assays:
[1] = test system: human tongue squamous carcinoma cells (SAS cells); test: Animal experiment: SAS tumor-transplanted nude mice, tumor growth delay with X-ray irradiation; format: in vivo; details: for enhancement ratio (ER): tumor volume 500 mm^3
Source text: Nude mice were assigned to four groups (control group; single use group of the present radiosensitizer administration; single use group of irradiation; and combined use group of irradiation and the present radiosensitizer administration; 4 mice per group). 1.0×10^6 human tongue squamous carcinoma cells (SAS cells) were suspended in PBS(−), and the suspension was transplanted subcutaneously into a right thigh of each mouse. After 10 to 14 days, when tumor volume became a desired value in a range of about 50 mm^3 to about 100 mm^3, each mouse was subjected to treatment according to each group. As a radiosensitizer, 3-O-(6-deoxy-6-sulfo-α-D-glucopyranosyl)-1-O-stearoyl-glycerol sodium salt (hereinafter, also referred to as “α-SQMG C18:0”) was used. Regarding the single use group of irradiation, X-ray was irradiated two times (at the time of treatment initiation (day 0) and on day 6 after the treatment initiation) at a dose of 8 Gy. Regarding the single use group of α-SQMG C18:0 administration, the sensitizer was intraperitoneally administered two times (day 0 and day 6) at a concentration of 1 mg/kg. Regarding the combined use group, each mouse of the group was treated with both of irradiation and α-SQMG C18:0 administration. Regarding the control group, neither irradiation nor α-SQMG C18:0 administration was performed. Thereafter, a short diameter and a long diameter of a tumor were measured with a micrometer caliper over a period of 16 to 23 days. Tumor volume was calculated by the following equation, and the tumor growth delaying effect was compared.
Equation for calculating tumor volume:
tumor volume (mm^3)=(short diameter)^2×(long diameter)×0.5
(§1) The same experiment as that of Experimental Example 1-1 was performed except that irradiation was performed at the time of treatment initiation (day 0) and on day 4 after the treatment initiation, administration of α-SQMG C18:0 was performed only on day 0, and measurement of tumor size was performed over a period of 26 days.
In order to express numerically this synergistic effect, ER (enhancement ratio) was calculated by the following equation. ER is a value defined by the literature (Int., J. Radiation Oncology Bio. Phys. Vol. 55, No. 3, pp. 713-723 (2003)), and ER will be explained below based on the definition.
ER=NGD÷TGD in the case of X-ray irradiation alone
In the equation, “TGD (tumor growth delay)” indicates delay of days necessary for tumor volume to reach a predetermined size in each test group as compared with a control group. That is, this is expressed by the following equation. In the Examples of the present invention, the predetermined size of tumor volume is 500 mm^3, unless otherwise indicated.
TGD=(number of days necessary for tumor volume to reach 500 mm^3 in test group)−(number of days necessary for tumor volume to reach 500 mm^3 in control group)
“NGD (normalized growth delay)” is expressed by the following equation.
NGD=(TGD in the case of combined use)−(TGD in the case of drug administration alone)
According to the aforementioned literature, it can be said that the anti-tumor effect is synergistic, when an enhancement ratio (ER) obtained by the above equation exceeds 1.0.
as §1, with “3” for “4”, “initiation,” for “initiation, administration of”, “administered once a” for “performed only on”, “from day 0 to day 4,” for “0,”, “35” for “26”
In the present Experimental Example, an experiment was performed in the same manner as in the above Experimental Example except that irradiation was performed at a dose of 2 Gy per fraction everyday from the time of treatment initiation (day 0) to day 4, and administration of α-SQMG C18:0 was performed everyday from day 0 to day 4. Details of the experiment will be described below.
Four nude mice (eight weeks old) were randomly assigned to each of four groups. […]

SAS cells = test: Colony assay on SAS cells; format: cell-based, human; details: same colony assay as Exp. Ex. 2-1 and 2-2
[2] = test system: angiogenesis (tube formation); test: Assay by angiogenesis kit (KZ-1000), tube formation; format: cell-based
Protocol: The anti-angiogenic effect obtained by combined use of 20 μM of α-SQMG C18:0 administration and 4 Gy of ^60Co γ-ray irradiation was investigated using an angiogenesis kit (“angiogenesis kit KZ-1000” of Kurabo Industries Ltd.).
A drug named Suramin is the known substance as a drug suppressing angiogenesis, and it is known that its action is to inhibit a growth factor receptor of a vascular endothelial cell. In the present Example, Suramin was used as a positive control at 50 μM.
As described above, the “theoretical additive point of combined use” is calculated by multiplication, and the theoretical value is compared with an actually measured value.

[3] = Exp. Ex. 1-2: X-ray 8 Gy day 0 and day 4, 1 mg/kg i.p. day 0 only
[4] = Exp. Ex. 1-3: X-ray 8 Gy day 0 and day 3, 1 mg/kg i.p. once a day day 0 to 4
[5] = 4 Gy 60Co γ-ray + α-SQMG C18:0 20 μM or Suramin 50 μM

## CCCCCCCCCCCCCCCCCC(=O)OCC(O)CO[C@H]1O[C@H](CS(=O)(=O)[O-])[C@@H](O)[C@H](O)[C@H]1O.[Na+] (stereo partly drawn) [α-SQMG C18:0, 3-O-(6-deoxy-6-sulfo-α-D-glucopyranosyl)-1-O-stearoyl-glycerol sodium salt]
[1]; Exp. Ex. 1-1: X-ray 8 Gy day 0 and day 6, 1 mg/kg i.p. day 0 and day 6
  anti-tumor effect (tumor volume), combined use with irradiation: anti-tumor effect far exceeding the anti-tumor effect attained by irradiation
[1]; [3]
  anti-tumor effect (tumor volume), combined use with irradiation: anti-tumor effect far exceeding the anti-tumor effect attained by irradiation
  enhancement ratio (ER): 2.0
[1]; [4]
  anti-tumor effect (tumor volume), combined use with irradiation: anti-tumor effect far exceeding the anti-tumor effect attained by irradiation
  enhancement ratio (ER): 3.0
[1]; Exp. Ex. 1-4: X-ray 2 Gy once a day day 0 to 4 (total 10 Gy), 1 mg/kg i.p. once a day day 0 to 4
  anti-tumor effect (tumor volume), combined use with irradiation: anti-tumor effect exceeding the anti-tumor effect attained by irradiation alone
[1]; Exp. Ex. 1-4: X-ray 2 Gy once a day day 0 to 4, 1 mg/kg i.p. once a day day 0 to 4
  enhancement ratio (ER): 1.8
SAS cells
  cell proliferation suppressing effect on SAS cells: did not exert a cell proliferation suppressing effect
[2]; [5]
  tube formation rate, Actually measured value, combined use: 0.0762
  tube formation rate, Theoretical value (theoretical additive point of combined use): 0.467
[2]; α-SQMG C18:0 20 μM, Suramin 50 μM, no irradiation
  tube formation rate, use alone: 0.7229
